# Experimental data taken from patent publication US11319273B2, “Lipophilic curcumin analogs and methods of inhibiting HIV-1, treating latent HIV in the brain, and preventing HIV-mediated cognitive decline and HIV dementia” (Howard University, priority 2012, dated 2022).
# Columns and labels:
# [1] = test system: BDNF; assay: Effect on BDNF mRNA level in CEM cells; assay type: cell-based; conditions: CEM cells (FIG. 4)
# Source text: (§1) Along with brain-derived neurotrophic factor (“BDNF”), protein kinase B (“AKT”), and mitogen-activated protein kinase 1 (“MAPK1”) (i.e., ERK1/2) genes are known to critically regulate cell survival and growth of neurons during development and the survival and function of adult neurons, as well as modulate synaptic transmission and plasticity. This example compares activities of natural curcumin and curcumin analog (1E,4E)-1,5-bis(4-hydroxy-3-methoxyphenyl)penta-1,4-dien-3-one on AKT, MAPK1 and […]. The analog was predicted to be more biologically soluble, absorbable, and more resistant to degradation than the natural curcumin. It has already been shown that natural curcumin increases the expression of BDNF in the hippocampus of rats. It was believed that, compared to natural curcumin, the analog would result in greater increase in the activities of these three neuroprotective genes as proof-of-principle of neuroprotection from latent HIV brain disease. The analysis was conducted on CEM cell lines, which are cells that are susceptible to HIV infection.
# [2] = test system: MAPK1; assay: Effect on MAPK1 mRNA level in CEM cells; assay type: cell-based; conditions: CEM cells (FIG. 4)
# Source text: as §1
# [3] = test system: AKT1; assay: Effect on AKT1 mRNA level in CEM cells; assay type: cell-based; conditions: CEM cells (FIG. 4)
# Source text: as §1
# [4] = test system: vesicular stomatitus virus glycoprotein (VSVG) pseudotyped HIV-1 pNL 4-3 virus expressing luciferase (VSVG-HIV-1 Luc); assay: microbe, parasite or virus in culture; conditions: Human immunodeficiency virus 1, T-cell, 48 h, read-out: anti-HIV activity IC50
# [5] = test system: vesicular stomatitus virus glycoprotein (VSVG) pseudotyped HIV-1 pNL 4-3 virus expressing luciferase (VSVG-HIV-1 Luc)
# [6] = Lipophilicity (octanol-water partition coefficient); assay type: physicochemical
# Source text: As used herein, lipophilicity refers to the affinity of a compound for a lipophilic environment. By one approach, lipophilicity can be determined using an octanol-water partition coefficient (Kow), which represents the ratio of the solubility of a compound in octanol (a non-polar solvent) to its solubility in water (a polar solvent). The higher the Kow, the more non-polar the compound. Log Kow values are generally inversely related to aqueous solubility and directly proportional to molecular weight. For purposes herein, lipophilicity values range between 0 to 10 and a value of at least 2.5 indicates good lipophilicity. A log Kow value less than 0 is considered hydrophilic.
Structure (SMILES),BDNF mRNA level [1],MAPK1 mRNA level [2],AKT1 mRNA level [3],IC50 [4] [nM],inhibition of HIV-1 virus in vitro [5],therapeutic index (IC50:cytotoxicity ratio) as compared to curcumin [5],lipophilicity [6]
"COc1cc(/C=C/C(=O)CC(=O)/C=C/c2ccc(O)c(OC)c2)ccc1O [Natural curcumin, Curcumin]",decrease,slight increase,slight increase,–,–,–,–
"COc1cc(/C=C/C(=O)/C=C/c2ccc(O)c(OC)c2)ccc1O [curcumin analog, (1E,4E)-1,5-bis(4-hydroxy-3-methoxyphenyl)penta-1,4-dien-3-one]",significantly increased,significantly increased,significantly increased,8,able to inhibit HIV at the nanomolar level,wider therapeutic index,very lipophilic
